Consider 33 compounds from patent publication US10519177B2, “Heterocyclic compounds and uses thereof” (Plexxikon Inc., priority 2013, dated 2019).

pIC50: −log10 of the molar value. Where only a bound is given, the exact number is not on record here.

The subject of this assay is bromodomain. As to the kind of experiment: at least one of the bromodomain cell assays of Example 57. Format: cell-based. Conditions: at least one of the bromodomain cell assays described in Example 57; read-out: IC50 in at least one of the bromodomain cell assays.

What is called pIC50 is the negative decadic logarithm of the IC50, by convention in mol/L. Consider `CCOC(=O)c1ccc(-c2cn([C@@H](c3ccccc3)c3ccccn3)c3cc(-c4c(C)noc4C)ccc23)cc1` [P-0752, ethyl 4-[6-(3,5-dimethylisoxazol-4-yl)-1-[(S)-phenyl(2-pyridyl)methyl]indol-3-yl]benzoate], for which the negative-log IC50 (pIC50) was greater than 5.00.

Consider `Cc1noc(C)c1-c1ccc2c(-c3ccc(CO)cc3)cn([C@@H](c3ccccc3)c3ccccn3)c2c1` [P-0753, [4-[6-(3,5-dimethylisoxazol-4-yl)-1-[(S)-phenyl(2-pyridyl)methyl]indol-3-yl]phenyl]methanol], for which the pIC50 is greater than 5.00.

With `Cc1noc(C)c1-c1ccc2c(-c3ccc(C#N)nc3)cn([C@@H](c3ccccc3)c3ccccn3)c2c1` [P-0754, 5-[6-(3,5-dimethylisoxazol-4-yl)-1-[(S)-phenyl(2-pyridyl)methyl]indol-3-yl]pyridine-2-carbonitrile], the pIC50 is greater than 5.00.

With `Cc1noc(C)c1-c1ccc2c(-c3ccc(C(=O)O)cc3)cn([C@H](c3ccccc3)c3ccccn3)c2c1` [P-0755, 4-[6-(3,5-dimethylisoxazol-4-yl)-1-[(R)-phenyl(2-pyridyl)methyl]indol-3-yl]benzoic acid], the pIC50 is greater than 5.00.

Take `CCOC(=O)c1ccc(-c2cn([C@H](c3ccccc3)c3ccccn3)c3cc(-c4c(C)noc4C)ccc23)cc1` [P-0756, ethyl 4-[6-(3,5-dimethylisoxazol-4-yl)-1-[(R)-phenyl(2-pyridyl)methyl]indol-3-yl]benzoate]: the pIC50 is greater than 5.00.

On to `Cc1noc(C)c1-c1ccc2c(-c3ccc(CO)cc3)cn([C@H](c3ccccc3)c3ccccn3)c2c1` [P-0757, [4-[6-(3,5-dimethylisoxazol-4-yl)-1-[(R)-phenyl(2-pyridyl)methyl]indol-3-yl]phenyl]methanol], for which the pIC50 is greater than 5.00.

Take `Cc1noc(C)c1-c1ccc2c(-c3ccc(C#N)nc3)cn([C@H](c3ccccc3)c3ccccn3)c2c1` [P-0758, 5-[6-(3,5-dimethylisoxazol-4-yl)-1-[(R)-phenyl(2-pyridyl)methyl]indol-3-yl]pyridine-2-carbonitrile]: the pIC50 is greater than 5.00.

With `Cc1cc(-c2cnc3c(-c4ccc(C(=O)O)cc4)cn(CC4CCCCC4)c3c2)cn(C)c1=O` [P-0759, 4-[1-(cyclohexylmethyl)-6-(1,5-dimethyl-6-oxo-3-pyridyl)pyrrolo[3,2-b]pyridin-3-yl]benzoic acid], the negative-log IC50 (pIC50) was greater than 5.00.

Regarding `Cc1cc(-c2ccc3c(-c4ccc(C(=O)O)cc4)cn(CC4CCCCC4)c3c2)cn(C)c1=O` [P-0760, 4-[1-(cyclohexylmethyl)-6-(1,5-dimethyl-6-oxo-3-pyridyl)indol-3-yl]benzoic acid], the pIC50 was greater than 5.00.

In the case of `Cc1cc(-c2cnc3c(-c4ccc(C(=O)O)cc4)cn([C@@H](C)c4ccccn4)c3c2)cn(C)c1=O` [P-0761, 4-[6-(1,5-dimethyl-6-oxo-3-pyridyl)-1-[(1S)-1-(2-pyridyl)ethyl]pyrrolo[3,2-b]pyridin-3-yl]benzoic acid], the pIC50 was greater than 5.00.

Turning to `Cc1cc(-c2ccc3c(-c4ccc(C(=O)O)cc4)cn([C@@H](C)c4ccccn4)c3c2)cn(C)c1=O` [P-0762, 4-[6-(1,5-dimethyl-6-oxo-3-pyridyl)-1-[(1S)-1-(2-pyridyl)ethyl]indol-3-yl]benzoic acid], the pIC50 is greater than 5.00.

Take `Cn1cc(-c2ccc3c(-c4ccc(C(=O)O)cc4)cn(CC4CCCCC4)c3c2)cc(Cl)c1=O` [P-0763, 4-[6-(5-chloro-1-methyl-6-oxo-3-pyridyl)-1-(cyclohexylmethyl)indol-3-yl]benzoic acid]: the pIC50 was greater than 5.00.

`Cn1cc(-c2cnc3c(-c4ccc(C(=O)O)cc4)cn(CC4CCCCC4)c3c2)cc(Cl)c1=O` [P-0764, 4-[6-(5-chloro-1-methyl-6-oxo-3-pyridyl)-1-(cyclohexylmethyl)pyrrolo[3,2-b]pyridin-3-yl]benzoic acid]: the pIC50 was greater than 5.00.

On to `C[C@@H](c1ccccn1)n1cc(-c2ccc(C(=O)O)cc2)c2ccc(-c3cc(Cl)c(=O)n(C)c3)cc21` [P-0765, 4-[6-(5-chloro-1-methyl-6-oxo-3-pyridyl)-1-[(1S)-1-(2-pyridyl)ethyl]indol-3-yl]benzoic acid], for which the pIC50 was greater than 5.00.

With `C[C@@H](c1ccccn1)n1cc(-c2ccc(C(=O)O)cc2)c2ncc(-c3cc(Cl)c(=O)n(C)c3)cc21` [P-0766, 4-[6-(5-chloro-1-methyl-6-oxo-3-pyridyl)-1-[(1S)-1-(2-pyridyl)ethyl]pyrrolo[3,2-b]pyridin-3-yl]benzoic acid], the negative logarithm of the IC50 (pIC50) is greater than 5.00.

As to `Cc1noc(C)c1-c1cnc2c(-c3ccc(C(=O)O)cc3)cn(CC3(C)COC3)c2c1` [P-0767, 4-[6-(3,5-dimethylisoxazol-4-yl)-1-[(3-methyloxetan-3-yl)methyl]pyrrolo[3,2-b]pyridin-3-yl]benzoic acid], the pIC50 was greater than 5.00.

Consider `Cc1noc(C)c1-c1cnc2c(-c3ccc(C(=O)O)cc3)cn(CC3CCCCO3)c2c1` (stereo not drawn) [P-0768, 4-[6-(3,5-dimethylisoxazol-4-yl)-1-(tetrahydrpyran-2-ylmethyl)pyrrolo[3,2-b]pyridin-3-yl]benzoic acid], for which the negative-log IC50 (pIC50) is greater than 5.00.

With `Cc1noc(C)c1-c1cnc2c(-c3ccc(C(=O)O)cc3)cn(CC3CCOCC3)c2c1` [P-0769, 4-[6-(3,5-dimethylisoxazol-4-yl)-1-(tetrahydropyran-4-ylmethyl)pyrrolo[3,2-b]pyridin-3-yl]benzoic acid], the pIC50 was greater than 5.00.

Consider `Cc1noc(C)c1-c1cnc2c(-c3ccc(CC(=O)O)cc3)cn(CC3CCOCC3)c2c1` [P-0771, 2-[4-[6-(3,5-dimethylisoxazol-4-yl)-1-(tetrahydropyran-4-ylmethyl)pyrrolo[3,2-b]pyridin-3-yl]phenyl]acetic acid], for which the pIC50 is greater than 5.00.

Take `Cc1noc(C)c1-c1cnc2c(-c3ccc(C4(C(=O)O)CC4)cc3)cn(CC3CCOCC3)c2c1` [P-0772, 1-[4-[6-(3,5-dimethylisoxazol-4-yl)-1-(tetrahydropyran-4-ylmethyl)pyrrolo[3,2-b]pyridin-3-yl]phenyl]cyclopropanecarboxylic acid]: the pIC50 was greater than 5.00.

In the case of `Cc1noc(C)c1-c1cnc2c(-c3ccc(C(C)(C)C(=O)O)cc3)cn(CC3CCOCC3)c2c1` [P-0773, 2-[4-[6-(3,5-dimethylisoxazol-4-yl)-1-(tetrahydropyran-4-ylmethyl)pyrrolo[3,2-b]pyridin-3-yl]phenyl]-2-methyl-propanoic acid], the pIC50 is greater than 5.00.

Turning to `Cc1noc(C)c1-c1cnc2c(-c3ccc(C4(C(=O)O)CC4)cc3)cn(CC3(C)CCOCC3)c2c1` [P-0777, 1-[4-[6-(3,5-dimethylisoxazol-4-yl)-1-[(4-methyltetrahydropyran-4-yl)methyl]pyrrolo[3,2-b]pyridin-3-yl]phenyl]cyclopropanecarboxylic acid], the negative-log IC50 (pIC50) was greater than 5.00.

As for `Cc1noc(C)c1-c1ccc2c(-c3ccc(C(=O)O)cc3)cn(CC3(C)CCCCC3)c2c1` [P-0779, 4-[6-(3,5-dimethylisoxazol-4-yl)-1-[(1-methylcyclohexyl)methyl]indol-3-yl]benzoic acid], the pIC50 is greater than 5.00.

Regarding `COc1cc(-c2cn(CC3(C)CCCCC3)c3cc(-c4c(C)noc4C)cnc23)ccc1C(=O)O` [P-0780, 4-[6-(3,5-dimethylisoxazol-4-yl)-1-[(1-methylcyclohexyl)methyl]pyrrolo[3,2-b]pyridin-3-yl]-2-methoxy-benzoic acid], the pIC50 was greater than 5.00.

`Cc1noc(C)c1-c1cnc2c(-c3ccc(CC(=O)O)cc3)cn(CC3(C)CCCCC3)c2c1` [P-0781, 2-[4-[6-(3,5-dimethylisoxazol-4-yl)-1-[(1-methylcyclohexyl)methyl]pyrrolo[3,2-b]pyridin-3-yl]phenyl]acetic acid]: the negative-log IC50 (pIC50) was greater than 5.00.

As for `Cc1noc(C)c1-c1cnc2c(-c3ccc(C4(C(=O)O)CC4)cc3)cn(CC3(C)CCCCC3)c2c1` [P-0782, 1-[4-[6-(3,5-dimethylisoxazol-4-yl)-1-[(1-methylcyclohexyl)methyl]pyrrolo[3,2-b]pyridin-3-yl]phenyl]cyclopropanecarboxylic acid], the negative logarithm of the IC50 (pIC50) was greater than 5.00.

`Cc1noc(C)c1-c1cnc2c(-c3ccc(C(C)(C)C(=O)O)cc3)cn(CC3(C)CCCCC3)c2c1` [P-0783, 2-[4-[6-(3,5-dimethylisoxazol-4-yl)-1-[(1-methylcyclohexyl)methyl]pyrrolo[3,2-b]pyridin-3-yl]phenyl]-2-methyl propanoic acid]: the pIC50 was greater than 5.00.

Consider `[2H]C([2H])([2H])c1ccc(-c2cn(CC3CCCCC3)c3cc(-c4c(C)noc4C)cnc23)cc1` [P-0785, 4-[1-(cyclohexylmethyl)-3-[4-(trideuteriomethyl)phenyl]pyrrolo[3,2-b]pyridin-6-yl]-3,5-dimethyl-isoxazole], for which the pIC50 is greater than 5.00.

As to `[2H]C([2H])([2H])c1ccc(-c2cn([C@@H](c3ccccc3)c3ccccn3)c3cc(-c4c(C)noc4C)cnc23)cc1` [P-0786, 3,5-dimethyl-4-[1-[(S)-phenyl(2-pyridyl)methyl]-3-[4-(trideuteriomethyl)phenyl]pyrrolo[3,2-b]pyridin-6-yl]isoxazole], the pIC50 is greater than 5.00.

`[2H]C([2H])([2H])c1ccc(-c2cn([C@H](c3ccccc3)c3ccccn3)c3cc(-c4c(C)noc4C)cnc23)cc1` [P-0787, 3,5-dimethyl-4-[1-[(R)-phenyl(2-pyridyl)methyl]-3-[4-(trideuteriomethyl)phenyl]pyrrolo[3,2-b]pyridin-6-yl]isoxazole]: the pIC50 is greater than 5.00.

Take `Cc1ccc(-c2cn([C@@H](c3ccccc3)c3ccccn3)c3cc(-c4c(C)noc4C)ccc23)cc1` [P-0789, 3,5-dimethyl-4-[1-[(S)-phenyl(2-pyridyl)methyl]-3-(p-tolyl)indol-6-yl]isoxazole]: the pIC50 was greater than 5.00.

On to `Cc1ccc(-c2cn([C@H](c3ccccc3)c3ccccn3)c3cc(-c4c(C)noc4C)ccc23)cc1` [P-0790, 3,5-dimethyl-4-[1-[(R)-phenyl(2-pyridyl)methyl]-3-(p-tolyl)indol-6-yl]isoxazole], for which the pIC50 was greater than 5.00.

Consider `Cc1ccc(-c2cn([C@@H](C)c3ccccn3)c3cc(-c4cc(C)c(=O)n(C)c4)cnc23)cc1` [P-0791, 1,3-dimethyl-5-[3-(p-tolyl)-1-[(1S)-1-(2-pyridyl)ethyl]pyrrolo[3,2-b]pyridin-6-yl]pyridin-2-one], for which the pIC50 was greater than 5.00.
